In ChEMBL document CHEMBL4680194, “Synthesis and biological evaluation of 1,2,4-triazole derivatives as potential neuroprotectant against ischemic brain injury” (Eur J Med Chem, 2020):
Calls of active or inactive are those of the source. No cut-off for these calls is given here.

Tests used:
[1] = system: PC-12; assay: Cytoprotective activity against SNP-induced cell death in rat PC-12 cells assessed as increase in cell viability at 10 uM incubated for 1 hr followed by SNP stimulation and measured after 24 hrs by MTT assay; format: functional; conditions: time 25.0 hrs
[2] = system: PC-12; assay: Cytoprotective activity against H2O2-induced cell death in rat PC-12 cells assessed as increase in cell viability at 10 uM incubated for 1 hr followed by H2O2 stimulation and measured after 5 hrs by MTT assay; format: functional; conditions: time 6.0 hrs
[3] = Metal chelating activity of the compound assessed as Fe2+-compound complex formation incubated for 10 mins in presence of ferrozine by UV-visible spectrophotometry
[4] = system: PC-12; assay: Cytoprotective activity against SNP-induced cell death in rat PC-12 cells assessed as increase in cell viability incubated for 1 hr followed by SNP stimulation and measured after 24 hrs by LDH assay; format: functional, cell-based; conditions: time 25.0 hrs
[5] = system: PC-12; assay: Cytoprotective activity against H2O2-induced cell death in rat PC-12 cells assessed as increase in cell viability incubated for 1 hr followed by H2O2 stimulation and measured after 5 hrs by LDH assay; format: functional, cell-based; conditions: time 6.0 hrs

Compound	Activity [1]	Activity [2]	IC50 [3]	IC50 ([3]; read-out: IC50) [µM]	Activity [4]	Activity [5]
NS(=O)(=O)c1ccc(-n2nc(-c3ccc(F)cc3O)nc2-c2ccc(F)cc2O)cc1	inactive	inactive	–	–	–	–
NS(=O)(=O)c1ccc(-n2nc(-c3ccc(F)cc3)nc2-c2ccccc2O)cc1	inactive	inactive	Not Active	–	–	–
NS(=O)(=O)c1ccc(-n2nc(-c3ccc(F)cc3O)nc2-c2ccccc2O)cc1	Active	Active	–	46.2	Dose-dependent effect	Dose-dependent effect
NS(=O)(=O)c1ccc(-n2nc(-c3ccccc3O)nc2-c2ccccc2O)cc1	Active	Active	–	42.9	Dose-dependent effect	Dose-dependent effect
NS(=O)(=O)c1ccc(-n2nc(-c3ccc(C(F)(F)F)cc3)nc2-c2ccccc2O)cc1	inactive	inactive	Not Active	–	–	–
NS(=O)(=O)c1ccc(-n2nc(-c3ccccc3)nc2-c2ccccc2O)cc1	inactive	inactive	Not Active	–	–	–
NS(=O)(=O)c1ccc(-n2nc(-c3ccc([N+](=O)[O-])cc3O)nc2-c2ccccc2O)cc1	Active	Active	–	27.5	Dose-dependent effect	Dose-dependent effect
Cc1ccc(-c2nc(-c3ccc(C)cc3O)n(-c3ccc(S(N)(=O)=O)cc3)n2)c(O)c1	inactive	inactive	–	–	–	–
Cc1ccc(-c2nc(-c3ccccc3O)n(-c3ccc(S(N)(=O)=O)cc3)n2)c(O)c1	Active	Active	–	35.1	Dose-dependent effect	Dose-dependent effect
NS(=O)(=O)c1ccc(-n2nc(-c3ccc([N+](=O)[O-])cc3)nc2-c2ccccc2O)cc1	inactive	inactive	Not Active	–	–	–
NS(=O)(=O)c1ccc(-n2nc(-c3ccc(C(F)(F)F)cc3O)nc2-c2ccc(C(F)(F)F)cc2O)cc1	inactive	inactive	–	–	–	–
NS(=O)(=O)c1ccc(-n2nc(-c3ccc(Cl)cc3O)nc2-c2ccccc2O)cc1	Active	Active	–	36	Dose-dependent effect	Dose-dependent effect
NS(=O)(=O)c1ccc(-n2nc(-c3ccc(C(F)(F)F)cc3O)nc2-c2ccccc2O)cc1	Active	Active	–	22.6	Dose-dependent effect	Dose-dependent effect
